From ChEMBL document CHEMBL1122681, “(Acylaryloxy)acetic acid diuretics. 5. [(2-Alkyl- and 2,2-disubstituted-1,3-dioxo-5-indanyl)oxy]acetic acids” (J Med Chem, 1984)

Assays:
[1] = volume of urine at 3 mg/kg; assay type: ADME, organism-based; design: dose 3 mg/kg; details: in vivo
[2] = volume of urine at 81 mg/kg; assay type: ADME, organism-based; design: dose 81 mg/kg; details: in vivo
[3] = volume of urine at 9 mg/kg; assay type: ADME, organism-based; design: dose 9 mg/kg; details: in vivo
Canis familiaris [4] = experiment: Compound was evaluated for diuretic activity, in female mongrel dogs by measuring volume of urine, after iv administration of 5 mg/kg (control/compound treatment results) Control = 2; assay type: ADME, organism-based, Canis lupus familiaris; design: dose 5 mg/kg, route intravenous; details: dog, in vivo
Pan troglodytes [5] = experiment: Compound was evaluated for diuretic activity in chimpanzee measured as increase in volume of urine at 1 mg/kg; assay type: functional
Pan troglodytes [6] = experiment: Compound was evaluated for diuretic activity in chimpanzee measured as increase in volume of urine at 5 mg/kg; assay type: functional
Pan troglodytes [7] = experiment: Compound was evaluated for diuretic activity in chimpanzee measured as clearance of […] and urate after intra venous administration of.1 5 mg/kg.; assay type: functional, Urine
Pan troglodytes [8] = experiment: Compound was evaluated for diuretic activity in chimpanzee measured as clearance of […] and urate after peroral administration of 5 mg/kg; assay type: functional, Urine; details: route oral
Pan troglodytes [9] = experiment: Compound was evaluated for diuretic activity in chimpanzee measured as increase in the number of microequivalents of Na+ /min at 1 0.5 mg/kg; assay type: functional, Urine
Pan troglodytes [10] = experiment: Compound was evaluated for diuretic activity in chimpanzee measured as increase in the number of microequivalents of Na+ /min at 5 mg/kg; assay type: functional, Urine
Pan troglodytes [11] = experiment: Compound was evaluated for diuretic activity in chimpanzee measured as increase in the number of microequivalents of Cl- electrolyte/min at 1.5 mg/kg; assay type: functional, Urine
Pan troglodytes [12] = experiment: Compound was evaluated for diuretic activity in chimpanzee measured as increase in the number of microequivalents of Cl- electrolyte/min at 5 mg/kg; assay type: functional, Urine
Canis familiaris [13] = experiment: Compound was evaluated for diuretic activity, in female mongrel dogs by measuring amount of K+ in urine after iv administration of 5 mg/kg (control/compound treatment results) Control = 13; assay type: functional, Canis lupus familiaris
Canis familiaris [14] = experiment: Compound was evaluated for diuretic activity, in female mongrel dogs by measuring amount of Cl- in urine after iv administration of 5 mg/kg (control/compound treatment results) Control = 5; assay type: functional, Canis lupus familiaris
Pan troglodytes [15] = experiment: Compound was evaluated for diuretic activity in chimpanzee measured as increase in the number of microequivalents of K+ /min at 1.5 mg/kg; assay type: functional, Urine
Pan troglodytes [16] = experiment: Compound was evaluated for diuretic activity in chimpanzee measured as increase in the number of microequivalents of K+ /min at 5 mg/kg; assay type: functional, Urine
Canis familiaris [17] = experiment: Compound was evaluated for diuretic activity, in female mongrel dogs by measuring amount of Na+ in urine after iv administration of 5 mg/kg (control/compound treatment results) Control = 59; assay type: functional, Canis lupus familiaris
Canis familiaris [18] = experiment: Compound was evaluated for diuretic activity, administered orally in female mongrel dogs (5 mg/kg) measured as milliequivalents of Cl-; assay type: functional, Canis lupus familiaris, Urine
Canis familiaris [19] = experiment: Compound was evaluated for diuretic activity, administered orally in female mongrel dogs (5 mg/kg) measured as milliequivalents of K; assay type: functional, Canis lupus familiaris, Urine
Canis familiaris [20] = experiment: Compound was evaluated for diuretic activity, administered orally in female mongrel dogs (5 mg/kg) measured as milliequivalents of Na; assay type: functional, Canis lupus familiaris, Urine
Canis familiaris [21] = species: Canis familiaris; experiment: (§1) Volume of urine in dog; assay type: functional, Canis lupus familiaris
Rattus norvegicus [22] = experiment: Compound was evaluated for diuretic activity administered orally in female rats measured as milliequivalents of Na+x 100 / cage at 81 mg/kg; assay type: functional, Urine; details: route oral
Rattus norvegicus [23] = experiment: Compound was evaluated for diuretic activity administered orally in female rats measured as milliequivalents of Na+x 100 / cage at 9 mg/kg; assay type: functional, Urine; details: route oral
Rattus norvegicus [24] = experiment: Compound was evaluated for diuretic activity administered orally in female rats measured as milliequivalents of Cl-+x 100 / cage at 27 mg/kg; assay type: functional, Urine; details: route oral
Rattus norvegicus [25] = experiment: Compound was evaluated for diuretic activity administered orally in female rats measured as milliequivalents of Cl-x 100 / cage at 3 mg/kg; assay type: functional, Urine; details: route oral
Rattus norvegicus [26] = experiment: Compound was evaluated for diuretic activity administered orally in female rats measured as milliequivalents of Cl-x 100 / cage at 81 mg/kg; assay type: functional, Urine; details: route oral
Rattus norvegicus [27] = experiment: Compound was evaluated for diuretic activity administered orally in female rats measured as milliequivalents of Cl-x 100 / cage at 9 mg/kg; assay type: functional, Urine; details: route oral
Rattus norvegicus [28] = experiment: Compound was evaluated for diuretic activity administered orally in female rats measured as milliequivalents of K+x 100 / cage at 27 mg/kg; assay type: functional, Urine; details: route oral
Rattus norvegicus [29] = experiment: Compound was evaluated for diuretic activity administered orally in female rats measured as milliequivalents of K+x 100 / cage at 3 mg/kg; assay type: functional, Urine; details: route oral
Rattus norvegicus [30] = experiment: Compound was evaluated for diuretic activity administered orally in female rats measured as milliequivalents of K+x 100 / cage at 81 mg/kg; assay type: functional, Urine; details: route oral
Rattus norvegicus [31] = experiment: Compound was evaluated for diuretic activity administered orally in female rats measured as milliequivalents of K+x 100 / cage at 9 mg/kg; assay type: functional, Urine; details: route oral
Rattus norvegicus [32] = experiment: Compound was evaluated for diuretic activity administered orally in female rats measured as milliequivalents of Na+x 100 / cage at 27 mg/kg; assay type: functional, Urine; details: route oral
Rattus norvegicus [33] = experiment: Compound was evaluated for diuretic activity administered orally in female rats measured as milliequivalents of Na+x 100 / cage at 3 mg/kg; assay type: functional, Urine; details: route oral
[34] = volume of urine at 27 mg/kg; assay type: ADME, organism-based; design: dose 27 mg/kg; details: in vivo
[35] = Volume of urine at 27 mg/kg; assay type: ADME, organism-based; design: dose 27 mg/kg; details: in vivo
[36] = Volume of urine at 3 mg/kg; assay type: ADME, organism-based; design: dose 3 mg/kg; details: in vivo
[37] = Volume of urine at 81 mg/kg; assay type: ADME, organism-based; design: dose 81 mg/kg; details: in vivo
[38] = Volume of urine at 9 mg/kg; assay type: ADME, organism-based; design: dose 9 mg/kg; details: in vivo
Canis familiaris [39] = species: Canis familiaris; experiment: as §1; assay type: ADME, organism-based, Canis lupus familiaris; details: in vivo
Pan troglodytes [40] = experiment: Compound was evaluated for diuretic activity in chimpanzee measured as clearance of […] and urate after intra venous administration of 1 mg/kg; assay type: functional, Urine
Pan troglodytes [41] = experiment: Compound was evaluated for diuretic activity in chimpanzee measured as increase in the number of microequivalents of Na+ /min at 1 mg/kg; assay type: functional, Urine
Pan troglodytes [42] = experiment: Compound was evaluated for diuretic activity in chimpanzee measured as increase in the number of microequivalents of Cl- electrolyte/min at 1 mg/kg; assay type: functional, Urine
Pan troglodytes [43] = experiment: Compound was evaluated for diuretic activity in chimpanzee measured as increase in the number of microequivalents of K+ /min at 1 mg/kg; assay type: functional, Urine
Canis familiaris [44] = experiment: Compound was evaluated for diuretic activity, in female mongrel dogs by measuring amount of Cl- in urine after iv administration of 5 mg/kg (control/compound treatment results) Control = 9; assay type: functional, Canis lupus familiaris
Canis familiaris [45] = experiment: Compound was evaluated for diuretic activity, in female mongrel dogs by measuring amount of K+ in urine after iv administration of 5 mg/kg (control/compound treatment results) Control = 5; assay type: functional, Canis lupus familiaris
Canis familiaris [46] = experiment: Compound was evaluated for diuretic activity, in female mongrel dogs by measuring amount of Na+ in urine after iv administration of 5 mg/kg (control/compound treatment results) Control = 24; assay type: functional, Canis lupus familiaris
Pan troglodytes [47] = experiment: Compound was evaluated for diuretic activity in chimpanzee measured as clearance of […] and urate after intra venous administration of 5 mg/kg.; assay type: functional, Urine
Pan troglodytes [48] = experiment: Compound was evaluated for diuretic activity in chimpanzee measured as increase in the number of microequivalents of Cl- /min at 5 mg/kg; assay type: functional, Urine

| Urine volume (Canis familiaris [4]) [mL/min] | SMILES | Increase in volume (Pan troglodytes [5]) [mL/min] | Increase in volume (Pan troglodytes [6]) [mL/min] | Delta C urate / delta C insulin (Pan troglodytes [8]) | Increase (Pan troglodytes [10]) | Increase (Pan troglodytes [12]) | Activity (Canis familiaris [13]) [u equiv min-1] | Activity (Canis familiaris [14]) [u equiv min-1] | Increase (Pan troglodytes [16]) | Activity (Canis familiaris [17]) [u equiv min-1] | Activity (Canis familiaris [18]) | Activity (Canis familiaris [19]) | Activity (Canis familiaris [20]) | Activity (Rattus norvegicus [22]) | Activity (Rattus norvegicus [23]) | Activity (Rattus norvegicus [24]) | Activity (Rattus norvegicus [25]) | Activity (Rattus norvegicus [26]) | Activity (Rattus norvegicus [27]) | Activity (Rattus norvegicus [28]) | other results |
| --- | --- | --- | --- | --- | --- | --- | --- | --- | --- | --- | --- | --- | --- | --- | --- | --- | --- | --- | --- | --- | --- |
| 3 | NS(=O)(=O)c1cc2c(cc1Cl)NCNS2(=O)=O [HYDROCHLOROTHIAZIDE] | 1.8 | 1 | -0.015 | 144 | 198 | 27 | 11 | 93 | 193 | 7 | 18 | 50 | 154 | 133 | 191 | 146 | 163 | 143 | 61 | Urine volume [1]: 37 mL; Urine volume [2]: 33 mL; Urine volume [3]: 30 mL; Delta C urate / delta C insulin (Pan troglodytes [7]): 0.01; Increase (Pan troglodytes [9]): 275; Increase (Pan troglodytes [11]): 187; Increase (Pan troglodytes [15]): 25; Volume of urine (Canis familiaris [21]): 25; Activity (Rattus norvegicus [29]): 50; Activity (Rattus norvegicus [30]): 61; Activity (Rattus norvegicus [31]): 33; Activity (Rattus norvegicus [32]): 168; Activity (Rattus norvegicus [33]): 127; Urine volume [34]: 32 mL |
| 5 | Cc1c(OCC(=O)O)cc2c(c1Cl)C(=O)C1(CCCC1)C2=O [(ACYLARYLOXY)ACETIC ACID] | 1.1 | -0.5 | 0.053 | 170 | 211 | – | – | 39 | – | 3 | 1 | 2 | 47 | 26 | 30 | 10 | 61 | 15 | 32 | Urine volume [35]: 33 mL; Urine volume [36]: 29 mL; Urine volume [37]: 29 mL; Urine volume [38]: 29 mL; Urine volume (Canis familiaris [39]): 253 mL; Delta C urate / delta C insulin (Pan troglodytes [40]): 0.088; Increase (Pan troglodytes [41]): 59; Increase (Pan troglodytes [42]): 117; Increase (Pan troglodytes [43]): 37; Activity (Canis familiaris [44]): 245 u equiv min-1; Activity (Canis familiaris [45]): 23 u equiv min-1; Activity (Canis familiaris [46]): 305 u equiv min-1; Activity (Rattus norvegicus [29]): 23; Activity (Rattus norvegicus [30]): 29; Activity (Rattus norvegicus [31]): 30; Activity (Rattus norvegicus [32]): 35; Activity (Rattus norvegicus [33]): 14 |
| 3 | Cc1c(OCc2nn[nH]n2)cc2c(c1Cl)C(=O)C1(CCCC1)C2=O | 0.6 | 0 | 0.026 | 5 | – | 27 | 11 | 2 | 193 | – | – | – | – | – | – | – | – | – | – | Delta C urate / delta C insulin (Pan troglodytes [47]): 0.128; Increase (Pan troglodytes [41]): 119; Increase (Pan troglodytes [48]): 36; Increase (Pan troglodytes [42]): 172; Increase (Pan troglodytes [43]): 55 |
